Data from ChEMBL document CHEMBL1201862, “PubChem BioAssay data set” (2004).
Activity calls are given as the source filed them.

Assays:
Coagulation factor XII = target: T1, Coagulation factor XII (Homo sapiens, UniProt P00748); experiment: Factor XIIa Dose Response Confirmation from Single Well HTS. [Related pubchem assays (depositor defined):AID701]; format: functional
T1 sequence (P00748 whole entry): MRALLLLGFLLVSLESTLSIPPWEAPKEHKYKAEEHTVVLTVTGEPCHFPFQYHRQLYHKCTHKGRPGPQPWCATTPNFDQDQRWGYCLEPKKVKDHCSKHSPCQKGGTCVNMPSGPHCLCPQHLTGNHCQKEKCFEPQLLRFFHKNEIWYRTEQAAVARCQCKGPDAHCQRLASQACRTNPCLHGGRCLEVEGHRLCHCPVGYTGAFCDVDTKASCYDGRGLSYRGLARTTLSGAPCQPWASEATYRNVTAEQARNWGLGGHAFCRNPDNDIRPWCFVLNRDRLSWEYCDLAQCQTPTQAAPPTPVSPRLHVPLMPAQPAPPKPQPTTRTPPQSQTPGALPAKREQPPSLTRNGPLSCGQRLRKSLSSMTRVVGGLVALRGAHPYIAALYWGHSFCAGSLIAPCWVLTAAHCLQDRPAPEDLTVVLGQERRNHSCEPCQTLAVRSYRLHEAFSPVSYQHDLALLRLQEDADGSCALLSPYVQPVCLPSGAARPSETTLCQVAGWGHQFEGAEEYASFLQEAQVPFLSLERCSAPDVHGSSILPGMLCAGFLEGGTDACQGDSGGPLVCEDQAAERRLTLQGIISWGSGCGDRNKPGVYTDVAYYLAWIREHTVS

Mu-type opioid receptor = Mu-type opioid receptor (Homo sapiens, UniProt P35372); format: functional, cell-based;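 further: U2OS cells with beta-arrestin recruitment to OPRM1 by beta-gal complementation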
[1] = target: 5-hydroxytryptamine receptor 2A (Mus musculus, UniProt P35363); format: functional, cell-based;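 further: CHO-K1 cells with tagged receptor and beta-arrestin; agonist potency measured as compound-induced activation of the receptor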
[2] = HEK293T cell cytotoxicity, dose response, cytotoxicity control for HIV Vif inhibitor project, cherry-picks (AID 652208); format: functional, cell-based
[3] = target: T2, Sentrin-specific protease 1 (Homo sapiens, UniProt Q9P0U3); experiment: potency of human SENP1 inhibitors, dose response, biochemical, kinetic FRET (AID 651697); format: functional; details: read-out: IC50_Mean
T2 sequence (Q9P0U3 whole entry): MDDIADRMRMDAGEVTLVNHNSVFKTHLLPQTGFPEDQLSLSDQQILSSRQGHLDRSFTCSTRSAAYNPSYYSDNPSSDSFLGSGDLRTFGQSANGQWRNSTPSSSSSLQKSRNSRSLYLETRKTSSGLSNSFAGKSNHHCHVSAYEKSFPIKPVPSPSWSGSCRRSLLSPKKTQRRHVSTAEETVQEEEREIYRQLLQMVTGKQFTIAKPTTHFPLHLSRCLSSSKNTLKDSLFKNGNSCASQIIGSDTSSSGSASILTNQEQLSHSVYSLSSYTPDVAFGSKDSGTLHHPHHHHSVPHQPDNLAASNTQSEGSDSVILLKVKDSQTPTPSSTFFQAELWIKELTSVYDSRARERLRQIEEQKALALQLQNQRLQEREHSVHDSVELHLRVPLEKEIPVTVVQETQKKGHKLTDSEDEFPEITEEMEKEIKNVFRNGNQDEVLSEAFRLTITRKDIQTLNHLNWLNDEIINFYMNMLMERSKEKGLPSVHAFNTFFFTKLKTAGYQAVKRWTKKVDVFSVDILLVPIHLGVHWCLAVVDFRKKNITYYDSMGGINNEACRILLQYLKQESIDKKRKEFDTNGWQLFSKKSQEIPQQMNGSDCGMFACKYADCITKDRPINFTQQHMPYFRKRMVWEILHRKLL

[4] = target: T2, Sentrin-specific protease 1; experiment: Dose response confirmation of small molecule inhibitors of the catalytic domain of the SUMO protease, SENP1 in a FRET assay.; format: functional; details: read-out: IC50_Mean
[5] = target: Hepatocyte nuclear factor 4-alpha (Homo sapiens, UniProt P41235); format: functional, cell-based;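 further: biochemical luminescence-based dose-response counterscreen measuring inhibition of HNF4 dimerization, run alongside a screen for blockers of ABHD5–perilipin-5 interaction; split luciferase complementation of HNF4 fusion proteins in cell lysate measuring dimerization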
[6] = MDA-MB-231 cell growth inhibition, dose response, cytotoxicity control for RAD54 inhibitor project, CellTiter-Glo luminescence, cherry-pick (AID 651692); format: functional, cell-based
[7] = HeLa cell cytotoxicity, dose response, cytotoxicity control for MgcRacGAP inhibitor project (AID 624300); format: functional
[8] = target: T3, DNA repair and recombination protein RAD54-like (Homo sapiens, UniProt Q92698); experiment: inhibitors of human RAD54 branch migration, confirmation, biochemical, fluorescence, cherry-picked samples, dose series (AID 651657); format: functional
T3 sequence (Q92698 whole entry): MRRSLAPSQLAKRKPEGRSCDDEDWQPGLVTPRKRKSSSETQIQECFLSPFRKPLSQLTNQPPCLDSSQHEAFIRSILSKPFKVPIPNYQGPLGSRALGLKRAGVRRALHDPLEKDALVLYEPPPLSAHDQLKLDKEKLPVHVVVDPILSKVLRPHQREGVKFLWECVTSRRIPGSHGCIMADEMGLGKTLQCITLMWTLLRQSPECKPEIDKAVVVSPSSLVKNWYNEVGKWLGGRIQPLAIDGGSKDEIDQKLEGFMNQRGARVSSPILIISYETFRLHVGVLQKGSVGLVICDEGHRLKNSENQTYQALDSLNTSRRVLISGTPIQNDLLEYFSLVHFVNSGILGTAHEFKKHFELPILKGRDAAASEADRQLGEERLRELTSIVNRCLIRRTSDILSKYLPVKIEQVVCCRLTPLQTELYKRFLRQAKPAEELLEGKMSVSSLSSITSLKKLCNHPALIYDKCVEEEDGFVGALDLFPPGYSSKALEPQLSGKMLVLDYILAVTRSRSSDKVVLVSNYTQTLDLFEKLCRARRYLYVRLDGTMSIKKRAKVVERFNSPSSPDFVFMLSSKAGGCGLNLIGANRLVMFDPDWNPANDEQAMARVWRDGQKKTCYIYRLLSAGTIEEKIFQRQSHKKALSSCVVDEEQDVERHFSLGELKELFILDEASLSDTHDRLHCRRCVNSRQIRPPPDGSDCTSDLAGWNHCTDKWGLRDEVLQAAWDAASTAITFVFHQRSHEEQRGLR

[9] = target: T4, Rac GTPase-activating protein 1 (Homo sapiens, UniProt Q9H0H5); experiment: MgcRacGAP GTPase-activating activity inhibitors, confirmation, biochemical, ADP Hunter fluorescence, primary and confirmatory (AID 624330); format: functional
T4 sequence (Q9H0H5 whole entry): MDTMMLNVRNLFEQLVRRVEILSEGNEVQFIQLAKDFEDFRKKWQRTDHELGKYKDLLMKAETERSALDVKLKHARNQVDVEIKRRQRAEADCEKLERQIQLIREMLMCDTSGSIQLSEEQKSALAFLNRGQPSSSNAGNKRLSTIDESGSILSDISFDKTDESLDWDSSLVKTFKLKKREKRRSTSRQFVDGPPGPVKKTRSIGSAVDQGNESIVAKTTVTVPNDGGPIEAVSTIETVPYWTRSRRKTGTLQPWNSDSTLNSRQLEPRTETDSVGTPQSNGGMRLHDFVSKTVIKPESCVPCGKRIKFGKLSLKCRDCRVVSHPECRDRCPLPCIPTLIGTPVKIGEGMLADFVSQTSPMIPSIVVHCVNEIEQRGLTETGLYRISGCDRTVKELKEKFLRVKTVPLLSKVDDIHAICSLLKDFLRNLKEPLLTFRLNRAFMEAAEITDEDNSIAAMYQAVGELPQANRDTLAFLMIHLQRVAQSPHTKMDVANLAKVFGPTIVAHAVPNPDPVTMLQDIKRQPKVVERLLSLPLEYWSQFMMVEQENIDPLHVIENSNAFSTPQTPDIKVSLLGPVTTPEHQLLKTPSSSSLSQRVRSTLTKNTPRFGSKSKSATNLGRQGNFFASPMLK

[10] = target: T5, DNA repair protein RAD52 homolog (Homo sapiens, UniProt P43351); format: functional, biochemical
T5 sequence (P43351 whole entry): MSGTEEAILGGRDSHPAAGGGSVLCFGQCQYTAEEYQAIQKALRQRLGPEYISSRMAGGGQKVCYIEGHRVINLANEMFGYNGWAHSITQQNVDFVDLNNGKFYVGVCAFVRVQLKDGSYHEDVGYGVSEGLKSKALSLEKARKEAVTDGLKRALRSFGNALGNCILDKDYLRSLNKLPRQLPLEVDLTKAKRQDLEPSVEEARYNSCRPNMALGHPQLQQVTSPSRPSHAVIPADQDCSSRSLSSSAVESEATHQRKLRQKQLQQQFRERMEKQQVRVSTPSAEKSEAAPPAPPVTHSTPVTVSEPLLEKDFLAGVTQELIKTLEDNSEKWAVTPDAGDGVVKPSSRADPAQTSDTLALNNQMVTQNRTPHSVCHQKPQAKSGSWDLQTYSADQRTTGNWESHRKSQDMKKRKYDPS

[11] = target: T6, Histone-lysine N-methyltransferase NSD2 (Homo sapiens, UniProt O96028); format: biochemical
T6 sequence (O96028 whole entry): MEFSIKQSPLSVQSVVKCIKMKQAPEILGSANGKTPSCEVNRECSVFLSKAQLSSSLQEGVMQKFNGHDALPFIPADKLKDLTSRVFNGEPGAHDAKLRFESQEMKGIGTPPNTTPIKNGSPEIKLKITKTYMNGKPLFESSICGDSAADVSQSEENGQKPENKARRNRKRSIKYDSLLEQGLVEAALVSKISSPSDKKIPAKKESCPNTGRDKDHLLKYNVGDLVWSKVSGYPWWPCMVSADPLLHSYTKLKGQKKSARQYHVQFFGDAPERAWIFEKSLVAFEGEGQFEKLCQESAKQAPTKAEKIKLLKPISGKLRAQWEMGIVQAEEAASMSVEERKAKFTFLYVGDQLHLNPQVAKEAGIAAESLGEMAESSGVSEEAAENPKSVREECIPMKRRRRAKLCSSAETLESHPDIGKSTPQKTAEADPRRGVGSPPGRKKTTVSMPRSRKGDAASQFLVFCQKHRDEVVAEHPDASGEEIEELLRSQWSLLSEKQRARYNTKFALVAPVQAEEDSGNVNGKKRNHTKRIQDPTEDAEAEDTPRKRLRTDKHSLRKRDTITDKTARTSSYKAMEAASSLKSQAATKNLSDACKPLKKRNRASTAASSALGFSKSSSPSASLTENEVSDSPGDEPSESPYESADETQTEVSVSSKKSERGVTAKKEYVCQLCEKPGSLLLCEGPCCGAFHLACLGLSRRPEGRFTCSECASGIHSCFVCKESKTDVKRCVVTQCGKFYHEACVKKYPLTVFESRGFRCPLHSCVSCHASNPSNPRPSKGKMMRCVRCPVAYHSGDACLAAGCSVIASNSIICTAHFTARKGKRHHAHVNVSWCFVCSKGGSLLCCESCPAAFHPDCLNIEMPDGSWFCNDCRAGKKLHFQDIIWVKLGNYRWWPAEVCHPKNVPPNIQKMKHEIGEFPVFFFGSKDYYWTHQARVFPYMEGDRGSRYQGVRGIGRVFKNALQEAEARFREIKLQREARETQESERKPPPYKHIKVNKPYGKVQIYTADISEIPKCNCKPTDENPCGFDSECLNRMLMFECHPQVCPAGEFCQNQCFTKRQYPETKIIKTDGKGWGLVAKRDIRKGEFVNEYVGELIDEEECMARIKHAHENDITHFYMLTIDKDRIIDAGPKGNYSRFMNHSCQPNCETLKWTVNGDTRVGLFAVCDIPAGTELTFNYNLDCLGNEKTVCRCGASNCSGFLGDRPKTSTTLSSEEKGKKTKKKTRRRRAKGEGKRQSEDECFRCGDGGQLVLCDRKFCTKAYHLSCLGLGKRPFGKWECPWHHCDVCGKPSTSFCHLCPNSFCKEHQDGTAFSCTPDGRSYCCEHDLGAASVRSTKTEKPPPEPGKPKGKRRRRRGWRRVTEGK

Genome polyprotein = Genome polyprotein (dengue virus type 2, UniProt P29990); experiment: Dengue-2 NS5 methyltransferase inhibitors, primary screen, biochemical, confirmation dose response (AID 588689); format: functional
[12] = target: T7, Probable nicotinate-nucleotide adenylyltransferase (Staphylococcus aureus (strain N315), UniProt P65502); format: functional, Staphylococcus aureus subsp. aureus N315;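 on IC50 Mean: confirmatory dose-response retesting of NadD inhibitor hits first found in an ultra-high-throughput screen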
[13] = target: T7, Probable nicotinate-nucleotide adenylyltransferase; format: functional, Staphylococcus aureus subsp. aureus N315; details: read-out: IC50_Mean
Beta-lactamase [14] = target: Beta-lactamase (Salmonella choleraesuis (strain SC-B67), UniProt Q5J463); experiment: Epi-absorbance-based counterscreen for selective VIM-2 inhibitors: dose response biochemical high throughput screening assay to identify inhibitors of TEM-1 serine-beta-lactamase.
Beta-lactamase [15] = target: T8, Beta-lactamase (Pseudomonas aeruginosa, UniProt Q79MP6); experiment: IMP-1 metallo-beta-lactamase inhibitors, dose response, selectivity assay for VIM-2 inhibitor project, biochemical, epi-absorbance (AID 1920)
Beta Lactamase [16] = target: T9, Beta Lactamase (Pseudomonas aeruginosa, UniProt Q932Y6); experiment: VIM-2 metallo-beta-lactamase inhibitor potency, dose response, biochemical, epi-absorbance readout, selective inhibitors (AID 1919)
Beta-lactamase [17] = target: T8, Beta-lactamase; experiment: […] counterscreen for selective VIM-2 inhibitors: dose response biochemical high throughput screening assay to identify inhibitors of IMP-1 metallo-beta-lactamase.
Beta Lactamase [18] = target: T9, Beta Lactamase; experiment: VIM-2 inhibitor FRET-based artefact check, dose response, artefact control for selective VIM-2 inhibitor project, biochemical, FRET readout, CCF2 substrate (AID 1926)

T7 sequence (P65502 whole entry): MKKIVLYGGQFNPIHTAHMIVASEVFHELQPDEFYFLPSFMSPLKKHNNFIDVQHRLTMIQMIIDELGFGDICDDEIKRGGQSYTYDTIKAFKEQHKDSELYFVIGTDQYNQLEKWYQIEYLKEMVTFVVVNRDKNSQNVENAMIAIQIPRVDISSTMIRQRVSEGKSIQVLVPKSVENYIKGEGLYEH
T9 sequence (Q932Y6 whole entry): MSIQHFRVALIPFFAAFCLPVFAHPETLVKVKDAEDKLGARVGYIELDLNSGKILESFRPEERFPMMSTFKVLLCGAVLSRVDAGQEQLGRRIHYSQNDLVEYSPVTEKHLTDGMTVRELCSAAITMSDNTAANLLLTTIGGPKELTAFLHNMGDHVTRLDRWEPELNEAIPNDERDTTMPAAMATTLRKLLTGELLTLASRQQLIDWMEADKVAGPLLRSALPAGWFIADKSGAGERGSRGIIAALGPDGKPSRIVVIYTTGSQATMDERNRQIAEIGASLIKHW
T8 sequence (Q79MP6 whole entry): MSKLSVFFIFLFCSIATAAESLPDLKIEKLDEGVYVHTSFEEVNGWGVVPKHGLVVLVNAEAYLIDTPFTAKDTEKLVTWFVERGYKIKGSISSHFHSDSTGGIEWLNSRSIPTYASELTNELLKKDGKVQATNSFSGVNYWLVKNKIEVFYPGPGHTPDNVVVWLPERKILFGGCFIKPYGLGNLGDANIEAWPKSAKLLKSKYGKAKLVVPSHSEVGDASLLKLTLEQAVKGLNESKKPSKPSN
Sequence of Genome polyprotein (P29990 2492-3391 limits assumed): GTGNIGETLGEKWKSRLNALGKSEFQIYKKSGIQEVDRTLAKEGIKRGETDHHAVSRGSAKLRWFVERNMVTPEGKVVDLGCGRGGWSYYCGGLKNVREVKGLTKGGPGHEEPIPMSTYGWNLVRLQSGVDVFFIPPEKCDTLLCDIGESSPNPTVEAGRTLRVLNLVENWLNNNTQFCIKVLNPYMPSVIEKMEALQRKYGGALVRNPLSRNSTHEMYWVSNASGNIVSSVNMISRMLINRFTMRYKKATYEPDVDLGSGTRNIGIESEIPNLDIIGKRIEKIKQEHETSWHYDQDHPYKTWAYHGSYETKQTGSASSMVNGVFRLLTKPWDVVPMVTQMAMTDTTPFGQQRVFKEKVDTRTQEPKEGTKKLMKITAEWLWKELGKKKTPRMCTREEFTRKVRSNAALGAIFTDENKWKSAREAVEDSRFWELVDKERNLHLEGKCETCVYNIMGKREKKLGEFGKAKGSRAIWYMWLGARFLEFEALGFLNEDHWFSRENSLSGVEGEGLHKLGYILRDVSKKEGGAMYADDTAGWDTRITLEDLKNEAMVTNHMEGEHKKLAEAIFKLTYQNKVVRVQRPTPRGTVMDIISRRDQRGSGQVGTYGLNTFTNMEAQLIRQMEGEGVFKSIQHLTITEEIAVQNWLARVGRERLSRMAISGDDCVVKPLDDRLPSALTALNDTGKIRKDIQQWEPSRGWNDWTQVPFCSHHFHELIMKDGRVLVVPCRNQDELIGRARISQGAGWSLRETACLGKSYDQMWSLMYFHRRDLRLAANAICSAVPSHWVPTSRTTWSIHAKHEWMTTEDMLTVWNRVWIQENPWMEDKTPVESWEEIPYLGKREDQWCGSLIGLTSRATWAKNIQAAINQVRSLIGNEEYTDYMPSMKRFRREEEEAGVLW
Sequence of Mu-type opioid receptor (P35372 whole entry): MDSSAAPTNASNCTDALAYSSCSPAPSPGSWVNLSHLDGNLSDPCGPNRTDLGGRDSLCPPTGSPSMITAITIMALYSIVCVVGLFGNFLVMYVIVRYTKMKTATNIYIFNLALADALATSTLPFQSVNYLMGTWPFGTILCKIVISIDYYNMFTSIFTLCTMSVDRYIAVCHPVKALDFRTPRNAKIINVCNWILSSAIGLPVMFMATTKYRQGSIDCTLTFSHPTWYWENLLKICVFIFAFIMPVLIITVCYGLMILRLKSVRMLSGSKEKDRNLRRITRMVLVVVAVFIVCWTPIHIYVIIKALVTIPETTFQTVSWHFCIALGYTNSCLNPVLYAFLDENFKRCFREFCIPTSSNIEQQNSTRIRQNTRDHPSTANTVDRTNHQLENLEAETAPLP
Sequence of Beta-lactamase (Salmonella choleraesuis (strain SC-B67), UniProt Q5J463) (Q5J463 whole entry): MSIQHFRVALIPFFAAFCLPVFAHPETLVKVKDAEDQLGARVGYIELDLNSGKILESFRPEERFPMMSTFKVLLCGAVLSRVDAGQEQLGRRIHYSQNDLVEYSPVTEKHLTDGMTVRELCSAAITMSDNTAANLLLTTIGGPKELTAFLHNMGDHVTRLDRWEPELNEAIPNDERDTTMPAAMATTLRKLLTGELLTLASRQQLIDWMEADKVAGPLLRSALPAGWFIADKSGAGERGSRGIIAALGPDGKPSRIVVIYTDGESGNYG
Sequence of Hepatocyte nuclear factor 4-alpha (P41235 whole entry, the tested form may be a part): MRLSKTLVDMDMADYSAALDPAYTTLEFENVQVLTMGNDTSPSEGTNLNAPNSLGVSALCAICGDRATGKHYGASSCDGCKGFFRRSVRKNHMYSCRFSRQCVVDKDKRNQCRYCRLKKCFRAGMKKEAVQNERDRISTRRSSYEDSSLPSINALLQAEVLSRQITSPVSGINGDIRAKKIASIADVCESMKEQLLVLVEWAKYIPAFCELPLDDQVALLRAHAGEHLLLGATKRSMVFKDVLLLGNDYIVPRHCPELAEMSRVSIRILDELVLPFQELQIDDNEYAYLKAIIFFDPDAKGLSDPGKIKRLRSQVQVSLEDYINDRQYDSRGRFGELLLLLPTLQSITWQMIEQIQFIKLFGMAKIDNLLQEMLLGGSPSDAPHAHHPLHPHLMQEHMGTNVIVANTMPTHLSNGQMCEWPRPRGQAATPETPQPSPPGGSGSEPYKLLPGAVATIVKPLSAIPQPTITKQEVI
Sequence of 5-hydroxytryptamine receptor 2A (P35363 whole entry): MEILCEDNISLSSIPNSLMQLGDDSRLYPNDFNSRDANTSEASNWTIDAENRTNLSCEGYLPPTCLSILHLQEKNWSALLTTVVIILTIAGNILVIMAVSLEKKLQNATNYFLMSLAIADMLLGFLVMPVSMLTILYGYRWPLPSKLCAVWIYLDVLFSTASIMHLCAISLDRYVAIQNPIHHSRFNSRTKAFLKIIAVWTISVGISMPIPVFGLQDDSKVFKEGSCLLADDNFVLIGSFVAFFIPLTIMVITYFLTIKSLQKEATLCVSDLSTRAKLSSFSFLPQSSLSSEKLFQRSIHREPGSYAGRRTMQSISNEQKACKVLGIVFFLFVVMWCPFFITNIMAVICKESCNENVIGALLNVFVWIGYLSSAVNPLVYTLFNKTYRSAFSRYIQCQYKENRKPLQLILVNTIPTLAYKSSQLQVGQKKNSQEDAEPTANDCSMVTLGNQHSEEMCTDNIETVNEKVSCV

CCOC(=O)N1CCN(C/C(C)=C/c2ccccc2)CC1
IC50 (Coagulation factor XII): > 50 µM (inactive)
EC50 (Mu-type opioid receptor): 92.5 µM (inactive)
EC50 [1]: 11.5 µM (inactive)

CCOC(=O)C1CCN(S(=O)(=O)c2cccc(-c3cn4cc(C)ccc4n3)c2)CC1
AC50 [2]: > 52 µM (inactive)

COc1ccc(N2C(=O)C3C(C2=O)C(C(=O)c2ccc(Cl)cc2)N2CCCC32)cc1 (stereo unspecified)
IC50 [3]: 5.56 µM (active)
IC50 [4]: 4.36 µM (active)

COc1cc(C)c2sc3ccccc3c(=O)c2c1NCCN(C)C
IC50 [5]: 36.1 µM (inactive)
AC50 [6]: 33.6 µM (active)
CC50 [7]: 53.3 µM (active)
AC50 [8]: 2.7 µM (active)
IC50 [9]: 71.4 µM (active)
AC50 [10]: 1.07 µM (active)
AC50 [11]: 5.29 µM (active)

Cc1ccc(NS(=O)(=O)c2ccc(N/N=C/c3ccccc3OCC(=O)O)c([N+](=O)[O-])c2)c(C)c1
IC50 (Genome polyprotein): 43.9 µM (active)
IC50 [12]: 6.32 µM (active)
IC50 [13]: 23.3 µM (active)

COc1ccc(OC)c(/C=N/NC(=O)CC2C(=O)NN=C2C)c1 (stereo unspecified)
IC50 (Beta-lactamase [14]): > 59.6 µM (inactive)
IC50 (Beta-lactamase [15]): > 59.6 µM (inactive)
IC50 (Beta Lactamase [16]): 6.1 µM (active)
IC50 (Beta-lactamase [17]): > 59.6 µM (inactive)
IC50 (Beta Lactamase [18]): 2.13 µM (active)
